This note sets out measurements from patent US20100210562A1, “USE OF IL-1 RECEPTOR PEPTIDE, ALONE OR IN COMBINATION WITH D-ALA-GLN-OCTADECYL ESTER, AS A THERAPEUTIC AGENT” (priority 2007, published 2010).

Where no end group is shown, it is not given here.

The test system of experiment [1] is Primary Human endothelial cells (HUVEC). Put plainly: Endothelial cell migration assay. The following applies: 10 micrograms per ml; 22 hours. In kind it is cell-based. The procedure:
Thereafter, designated concentration of testing peptides—10 micrograms per ml—was added in duplicate wells.

The subject of experiment [2] is Th1/Th2 cytokine production (IL-2, IL-4, IL-5, IFN-γ, TNF-α) in murine spleen cells. Put plainly: Th1/Th2 cytokine profiling assay in ovalbumin-restimulated spleen cells. In kind it is cell-based, Balb/c mice. As to conditions: 10 micrograms per ml; ovalbumin restimulation; 72 hours.
Text: The Balb/c mice (originated in 1923, it is a popular strain and is used in many different research disciplines. Also classified as an inbred from the production of 20 or more successive brother-sister matings, the Balb/c mouse is albino and small in size) were immunized on Days 1, 15, and 29 with Ovalbumin (Ovalbumin is the main protein found in egg white, commonly used to stimulate an immunological reaction in test animals) in PBS (5 micrograms/injection). On day 50, spleens of the mice were harvested (3 weeks after last boost with Ovalbumin). Cells were cultured (2×10^5/well in triplicate) and incubated with culture medium or test peptides—10 micrograms per ml—for 30 min. Thereafter, additional Ovalbumin was added to the cells at 10 micrograms/ml for in vitro restimulation of the cells. 72 hours later, cell supernatants were harvested and assayed using the Becton Dickinson Mouse Th1/Th2 Cytokine CBA Kit.
Experiment [3] has as its system HUVEC. Kind of experiment: Endothelial tube formation assay. In kind it is cell-based, human. The following applies: 10 micrograms per ml; 20 hours; average tubule length. The source says: Positive control was vehicle only. […] Raw data were expressed as average tubule lenghs in pixels±standard deviation.
Experiment [4] deals with hepatitis B virus (HBV) ayw strain. Put plainly: HBV experimental assay system, secreted HBV DNA by TaqMan PCR in HepG2-2.2.15. In kind it is cell-based. As to conditions: 10 micrograms per ml; 6 days; HBV DNA in supernatant.
The test system of experiment [5] is HCMV strain AD169. Put plainly: HCMV plaque formation assay in MRC-5 cells. The following applies: for inhibition of HCMV plaque formation as compared to the virus control experiment: 10 micrograms per ml, 7-10 days.
Experiment [6] concerns HIV-1IIIB. The following applies: positive controls; MTS readout.

For the molecule “Lys-Ile-Cys-Ile-Arg-Ile-Gln-Ile-Ser-OH (KICIRIQIS-OH) [Peptide 1]”, the “inhibition of the migration of human endothelial cells” value in experiment [1] turned out to be 32%. For the same molecule, in experiment [2], the “change of the production of IL-2 in murine spleen cells” value is reported as “did not significantly change”, the “change of the production of IL-4 in murine spleen cells” value is “did not significantly change”, the “decrease of the production of IFN-γ in murine spleen cells” value is reported as “did not significantly change” and the “decrease of the production of IL-5 in murine spleen cells” value is given as “did not significantly change”. Further, in experiment [2], the “decrease of the production of TNF-a in murine spleen cells” value is 97%. Also, in experiment [3], the “inhibition of the tube formation of human endothelial cells” value amounted to 12%. Also, the “inhibition of HBV replication as compared to the virus control infection” value in experiment [4] is given as 41.0%. Moreover, the “inhibition of HCMV plaque formation as compared to the virus control experiment” value in experiment [5] is “did not inhibit”.
Take `Nc1nc(O)c2ncn(COC(CO)CO)c2n1` [Ganciclovir, reference compound]: in experiment [5] (positive control), the “antiviral activity of positive control compound (HCMV)” value is recorded as “expected levels of antiviral activity”.
As for `CC(C)(C)NC(=O)[C@@H]1CN(Cc2cccnc2)CCN1C[C@@H](O)C[C@@H](Cc1ccccc1)C(=O)N[C@H]1c2ccccc2C[C@H]1O` [indinavir], the “antiviral activity of positive control compounds (HIV-1)” value in experiment [6] is “expected levels of antiviral activity”.
Consider D-Ala-Gln-octadecyl ester [Peptide 2], for which the “increase of the migration of endothelial cells” value in experiment [1] turned out to be 2%. In experiment [2], the “change of the production of IL-2 in murine spleen cells” value is given as “did not significantly change”, the “change of the production of IL-4 in murine spleen cells” value was “did not significantly change”, the “decrease of the production of IFN-γ in murine spleen cells” value came to 98.1% and the “decrease of the production of IL-5 in murine spleen cells” value turned out to be 74.2%. For the same molecule, in experiment [2], the “decrease of the production of TNF-a in murine spleen cells” value worked out at 71.3%. For the same molecule, the “inhibition of the tube formation of human endothelial cells” value in experiment [3] is 10%. For the same molecule, the “inhibition of HBV replication as compared to the virus control infection” value in experiment [4] was determined as 66.0%. Further, in experiment [5], the “inhibition of HCMV plaque formation as compared to the virus control experiment” value is 2.9%.
Regarding `Cc1cn([C@H]2C[C@H](N=[N+]=[N-])[C@@H](CO)O2)c(=O)[nH]c1=O` [AZT], in experiment [6], the “antiviral activity of positive control compounds (HIV-1)” value is reported as “expected levels of antiviral activity”.
